ChEMBL document CHEMBL5252576, “Stictamycin, an Aromatic Polyketide Antibiotic Isolated from a New Zealand Lichen-Sourced Streptomyces Species” (2023)
Converted amounts (≈) assume the structure as drawn.

Experiments:
Type in all cases: functional
Settings in all cases: time 16-20 hrs
Bacillus subtilis = assay: Antibacterial activity against Bacillus subtilis E168 assessed as inhibition of bacterial growth incubated for 16 to 20 hrs by Mueller-Hinton broth based two-fold serial dilution method
Escherichia coli = assay: Antibacterial activity against TolC-deficient Escherichia coli assessed as inhibition of bacterial growth incubated for 16 to 20 hrs by Mueller-Hinton broth based two-fold serial dilution method
Staphylococcus aureus = assay: Antibacterial activity against Staphylococcus aureus assessed as inhibition of bacterial growth incubated for 16 to 20 hrs by Mueller-Hinton broth based two-fold serial dilution method

Structure (SMILES) | MIC (Bacillus subtilis) | MIC (Escherichia coli) | MIC (Staphylococcus aureus)
CC[C@]1(O)CC(=O)c2c(cc3cccc(O)c3c2O)[C@H]1C(C)=O | 32 µg/mL (≈ 102 µM) | 32 µg/mL (≈ 102 µM) | 2 µg/mL (≈ 6.36 µM)
NC[C@H]1O[C@H](O[C@H]2[C@H](O)[C@@H](O[C@H]3O[C@H](CO)[C@@H](O)[C@H](N)[C@H]3O)[C@H](N)C[C@@H]2N)[C@H](O)[C@@H](O)[C@@H]1O [KANAMYCIN] | 2 µg/mL (≈ 4.13 µM) | 2 µg/mL (≈ 4.13 µM) | 1 µg/mL (≈ 2.06 µM)
